“Also recorded” adds a separate entry of the source.
System: stem cell-like cells
Assay: Stem cell-like cells detection (BrdU and p63 staining), stem cell deficiency model
Format: in vivo, mice
Settings: Fosaprepitant 1 mg/mL (FOSA 1)
Description: Eight-week-old male mice C57BL6/N (Charles River, Calco, Italy) (WT mice, n=18) and Tac1-deficient B6.Cg-Tac1tm1Bbm/J (Jackson Laboratories, Bar Harbor, Me., USA) (TAC1-KO mice, n=18) were used in all experiments. TAC1-KO mice are homozygous null for the Tac1 gene. […] The corneal thickness and transparency as well as the corneal nerve length are similar to C57BL/6 mice [Barbariga M, Rabiolo A, Fonteyne P, Bignami F, Rama P, Ferrari G. The effect of aging on nerve morphology and substance P expression in mouse and human corneas. Investig Ophthalmol Vis Sci 2018; 59:5329-35. https://doi.org/10.1167/iovs.18-24707.]. Each animal was anesthetized with an intraperitoneal injection of tribromoethanol (250 mg/kg) and a topical anesthetic was applied to their ocular surface prior to the surgical procedure. Total disepithelization was performed based on the model previously described [Amirjamshidi H, Milani B Y, Sagha H M, Movahedan A, Shafiq M A, Lavker R M, et al. Limbal fibroblast conditioned media: A non-invasive treatment for limbal stem cell deficiency. Mol Vis 2011; 17:658], using a blunt spatula to scrap the entire corneal epithelium, including the limbus. Then, fluorescein staining was used to confirm complete removal of the corneal epithelium under the blue light of a slit-lamp microscope. After wounding, eyes were treated with ophthalmic moxifloxacin 1 time/day for 1 week to […]. Fourteen days after disepithelization mice were euthanized using carbon dioxide inhalation and subsequent cervical dislocation. Corneas were collected for immunostaining and western blot analysis. All experimental protocols were approved by the Animal Care and Use Committee of the Istituto di Ricovero e cura a Carattere Scientifico San Raffaele Scientific Institute, in accordance with the ARVO Statement for the Use of Animals in Ophthalmic and Vision Research.
To evaluate the pharmacological inhibition of Substance P, mice received 10 μL of Fosaprepitant topically (IVEMEND, Merck Sharp & Dohme Ltd., Hoddes-don, UK) in two different concentrations: 0.1 mg/mL (FOSA 0.1, n=5) or 1 mg/mL (FOSA 1, n=5) 4 times/day every 2 hours […]. Control animals received instead 10 μL of vehicle (PBS) (WT, n=5). The treatments started the same day that corneal disepithelization was performed.
Immediately after corneal dispepithelization, animals were intraperitoneally injected with […] (BrdU) (50 ug/g body weight, ab142567, Abcam) twice a day (9 a.m and 4 p.m), for 7 days. […] The images were acquired by epifluorescence microscope (Leica CTR5500; Leica Microsystems, Wetzlar, Germany) (20×) and analyzed with Image J software. A negative control using only the secondary antibody was used to establish a fluorescence threshold. […]

With `C[C@@H](O[C@H]1OCCN(Cc2nc(=O)n(P(=O)(O)O)[nH]2)[C@H]1c1ccc(F)cc1)c1cc(C(F)(F)F)cc(C(F)(F)F)c1` [Fosaprepitant, [3-{[(2R,3S)-2-[(1R)-1-[3,5-bis(trifluoromethyl)phenyl]ethoxy]-3-(4-fluorophenyl)morpholin-4-yl]methyl}-5-oxo-2H-1,2,4-triazol-1-yl]phosphonic acid] the “p63 content compared to WT” value was “no differences”, the “BrdU staining in the corneal epithelium compared to WT” value (p<0.01) was “significant increase” and the “number of stem cell-like cells (epithelial stem cells) compared to WT” value (p<0.01) was “increase number”. For the same compound, the “percentage of p63/BrdU colocalization compared to WT” value (p<0.05) was “increased percentage; also recorded: higher percentage”.
